The values that follow are results of earlier work, collected in patent US20250258260A1, “MEGLUMINE BASED FORMULATIONS FOR DYNAMIC NUCLEAR POLARIZATION” (THE BOARD OF REGENTS OF THE UNIVERSITY OF TEXAS SYSTEM, priority 2024, published 2025).

In brackets after ≈: the same amount, converted by molar mass. Read-outs that look alike come from different tables or passages of the source.

The subject of series [1] is muscle function. Conditions: 18 mM in drinking water for at least 30 days.
The conditions of series [2]: at 11.7 T using water as solvent.

`CNC[C@H](O)[C@@H](O)[C@H](O)[C@H](O)CO` [meglumine]: the solubility in water result is recorded as “up to 1 g/mL”. The effect of supplementation entry in series [1] is given as “favorable effect on muscle function”.

Take `O=C(O)/C=C/C(=O)O` [fumaric acid]: under “at 25° C.”, the solubility in water is 6000 µg/mL (≈ 51.7 mM).

For the molecule `O=[13C](O)/C=C/[13C](=O)O` [[1,4-^13C2]fumarate], the T1 in series [2] is 29 s.
